# Experimental data from US8921362B2, “6,7-dialkoxy quinazoline derivatives and methods of treating drug resistant and other tumors” (Natco Pharma Limited, priority 2008, dated 2014).
# Columns and labels:
# Test in all cases: KinomeScan
# Assay type in all cases: binding
# Conditions in all cases: read-out: % Ctrl @ 10000 nM
# MLK3 = target: T1, MLK3 (Homo sapiens, UniProt Q16584)
# T1 construct: host or cells: T7 phage grown in E. coli host derived from BL21
# Method in brief: (§1)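 qPCR titer; phage-tagged kinase vs bead ligand; compound diluted from 40× DMSO stock; 2.5% DMSO control.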
# MAPKAPK2 = target: T2, MAPKAPK2 (Homo sapiens, UniProt P49137)
# T2 construct: host or cells: E. coli host derived from the BL21 strain, infected with T7 phage
# Method in brief: as §1
# EPHA6 = target: T3, EPHA6 (Homo sapiens, UniProt Q9UF33)
# T3 construct: purchased Ambit Biosciences Corp; host or cells: T7 phage in E. coli host derived from BL21
# Method in brief: as §1
# PIK3CB = target: T4, PIK3CB (Homo sapiens, UniProt P42338)
# T4 construct: host or cells: E. coli host derived from BL21, infected with T7 phage
# Method in brief: as §1
# HCK = target: T5, HCK (Homo sapiens, UniProt P08631)
# T5 construct: host or cells: T7 phage in E. coli host derived from BL21
# Method in brief: as §1
# CSNK2A2 = target: T6, CSNK2A2 (Homo sapiens, UniProt P19784)
# T6 construct: purchased Ambit Biosciences Corp (KinomeScan); host or cells: T7 phage in E. coli host derived from BL21
# Method in brief: as §1
# MST1R = target: T7, MST1R (Homo sapiens, UniProt Q04912)
# T7 construct: host or cells: T7 phage grown in E. coli host derived from BL21
# Method in brief: as §1
# AURKC = target: T8, AURKC (Homo sapiens, UniProt Q9UQB9)
# T8 construct: host or cells: E. coli host derived from BL21
# Method in brief: as §1
# [1] = target: T9, RPS6KA4(Kin.Dom.-1-N-terminal) (Homo sapiens, UniProt O75676)
# T9 construct: RPS6KA4(Kin.Dom.-1-N-terminal); host or cells: E. coli host derived from BL21, T7 phage display
# Method in brief: as §1
# CSNK1A1L = target: T10, CSNK1A1L (Homo sapiens, UniProt Q8N752)
# T10 construct: host or cells: T7 phage in E. coli host derived from BL21
# Method in brief: as §1
# TNNI3K = target: T11, TNNI3K (Homo sapiens, UniProt Q59H18)
# T11 construct: host or cells: E. coli host derived from BL21, T7 phage
# Method in brief: as §1
# ERK3 = target: T12, ERK3 (Homo sapiens, UniProt Q16659)
# T12 construct: purchased Ambit Biosciences Corp; host or cells: T7 phage in E. coli host derived from BL21
# Method in brief: as §1
# CDK5 = target: T13, CDK5 (Homo sapiens, UniProt Q00535)
# T13 construct: host or cells: T7 phage in E. coli host derived from BL21
# Method in brief: as §1
# ACVR1B = target: T14, ACVR1B (Homo sapiens, UniProt P36896)
# T14 construct: host or cells: E. coli (BL21-derived), T7 phage lysate
# Method in brief: as §1
# CLK1 = target: T15, CLK1 (Homo sapiens, UniProt P49759)
# T15 construct: host or cells: T7 phage in E. coli host derived from BL21
# Method in brief: as §1
# TGFBR2 = target: T16, TGFBR2 (Homo sapiens, UniProt P37173)
# T16 construct: host or cells: T7 phage grown in E. coli (BL21-derived)
# Method in brief: as §1
# EGFR(L861Q) = target: T17, EGFR(L861Q) (Homo sapiens, UniProt P00533, L861Q)
# T17 construct: purchased Ambit Biosciences Corp; host or cells: T7 phage in E. coli host derived from BL21
# Method in brief: as §1
# PCTK3 = target: T18, PCTK3 (Homo sapiens, UniProt Q07002)
# T18 construct: host or cells: E. coli host derived from BL21, infected with T7 phage
# Method in brief: as §1
# HPK1 = target: T19, HPK1 (Homo sapiens, UniProt Q92918)
# T19 construct: host or cells: T7 phage in E. coli host derived from BL21
# Method in brief: as §1
# MARK1 = target: T20, MARK1 (Homo sapiens, UniProt Q9P0L2)
# T20 construct: host or cells: E. coli host derived from the BL21 strain, infected with T7 phage
# Method in brief: as §1
# ABL1(M351T) = target: T21, ABL1(M351T) (Homo sapiens, UniProt P00519, M351T)
# T21 construct: host or cells: E. coli (BL21-derived), T7 phage lysate
# Method in brief: as §1
# WEE1 = target: T22, WEE1 (Homo sapiens, UniProt P30291)
# T22 construct: host or cells: E. coli host derived from BL21, T7 phage
# Method in brief: as §1
# MAP3K3 = target: T23, MAP3K3 (Homo sapiens, UniProt Q99759)
# T23 construct: host or cells: E. coli host derived from the BL21 strain, infected with T7 phage
# Method in brief: as §1
# YANK2 = target: T24, YANK2 (Homo sapiens, UniProt Q9NY57)
# T24 construct: host or cells: E. coli host derived from BL21, T7 phage
# Method in brief: as §1
# GAK = target: T25, GAK (Homo sapiens, UniProt O14976)
# T25 construct: host or cells: T7 phage in E. coli host derived from BL21
# Method in brief: as §1
# AKT3 = target: T26, AKT3 (Homo sapiens, UniProt Q9Y243)
# T26 construct: host or cells: E. coli (BL21-derived), T7 phage lysate
# Method in brief: as §1
# p38-delta = target: T27, p38-delta (Homo sapiens, UniProt O15264)
# T27 construct: host or cells: E. coli host derived from BL21, infected with T7 phage
# Method in brief: as §1
# LATS2 = target: T28, LATS2 (Homo sapiens, UniProt Q9NRM7)
# T28 construct: host or cells: T7 phage grown in E. coli host derived from BL21
# Method in brief: as §1
# MAP4K5 = target: T29, MAP4K5 (Homo sapiens, UniProt Q9Y4K4)
# T29 construct: host or cells: E. coli host derived from the BL21 strain, infected with T7 phage
# Method in brief: as §1
# ACVR2B = target: T30, ACVR2B (Homo sapiens, UniProt Q13705)
# T30 construct: host or cells: E. coli (BL21-derived), T7 phage lysate
# Method in brief: as §1
# [2] = target: T31, RPS6KA2(Kin.Dom.-1-N-terminal) (Homo sapiens, UniProt Q15349)
# T31 construct: RPS6KA2(Kin.Dom.-1-N-terminal); host or cells: E. coli host derived from BL21, T7 phage display
# Method in brief: as §1
# DDR2 = target: T32, DDR2 (Homo sapiens, UniProt Q16832)
# T32 construct: purchased Ambit Biosciences Corp (KinomeScan); host or cells: T7 phage in E. coli host derived from BL21
# Method in brief: as §1
# EPHA4 = target: T33, EPHA4 (Homo sapiens, UniProt P54764)
# T33 construct: purchased Ambit Biosciences Corp; host or cells: T7 phage in E. coli host derived from BL21
# Method in brief: as §1
# T6 sequence (P19784 whole entry): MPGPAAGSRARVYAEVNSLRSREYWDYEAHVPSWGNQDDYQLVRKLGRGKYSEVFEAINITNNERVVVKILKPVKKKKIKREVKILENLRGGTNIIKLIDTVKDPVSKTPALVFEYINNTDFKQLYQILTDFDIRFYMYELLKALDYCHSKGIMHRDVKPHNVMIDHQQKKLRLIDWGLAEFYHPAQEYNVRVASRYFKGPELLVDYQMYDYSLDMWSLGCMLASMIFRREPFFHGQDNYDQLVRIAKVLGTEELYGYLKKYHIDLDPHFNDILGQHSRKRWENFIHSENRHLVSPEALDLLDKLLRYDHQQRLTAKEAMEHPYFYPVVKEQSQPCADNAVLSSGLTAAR
# T8 sequence (Q9UQB9 whole entry): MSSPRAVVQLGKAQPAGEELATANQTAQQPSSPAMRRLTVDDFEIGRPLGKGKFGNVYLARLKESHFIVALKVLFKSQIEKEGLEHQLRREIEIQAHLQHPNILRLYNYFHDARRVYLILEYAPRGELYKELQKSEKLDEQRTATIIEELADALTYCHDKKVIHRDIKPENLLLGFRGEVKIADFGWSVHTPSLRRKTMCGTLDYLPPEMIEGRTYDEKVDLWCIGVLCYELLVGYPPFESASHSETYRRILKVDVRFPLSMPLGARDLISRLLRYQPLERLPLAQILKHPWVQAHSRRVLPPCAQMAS
# T1 sequence (Q16584 whole entry): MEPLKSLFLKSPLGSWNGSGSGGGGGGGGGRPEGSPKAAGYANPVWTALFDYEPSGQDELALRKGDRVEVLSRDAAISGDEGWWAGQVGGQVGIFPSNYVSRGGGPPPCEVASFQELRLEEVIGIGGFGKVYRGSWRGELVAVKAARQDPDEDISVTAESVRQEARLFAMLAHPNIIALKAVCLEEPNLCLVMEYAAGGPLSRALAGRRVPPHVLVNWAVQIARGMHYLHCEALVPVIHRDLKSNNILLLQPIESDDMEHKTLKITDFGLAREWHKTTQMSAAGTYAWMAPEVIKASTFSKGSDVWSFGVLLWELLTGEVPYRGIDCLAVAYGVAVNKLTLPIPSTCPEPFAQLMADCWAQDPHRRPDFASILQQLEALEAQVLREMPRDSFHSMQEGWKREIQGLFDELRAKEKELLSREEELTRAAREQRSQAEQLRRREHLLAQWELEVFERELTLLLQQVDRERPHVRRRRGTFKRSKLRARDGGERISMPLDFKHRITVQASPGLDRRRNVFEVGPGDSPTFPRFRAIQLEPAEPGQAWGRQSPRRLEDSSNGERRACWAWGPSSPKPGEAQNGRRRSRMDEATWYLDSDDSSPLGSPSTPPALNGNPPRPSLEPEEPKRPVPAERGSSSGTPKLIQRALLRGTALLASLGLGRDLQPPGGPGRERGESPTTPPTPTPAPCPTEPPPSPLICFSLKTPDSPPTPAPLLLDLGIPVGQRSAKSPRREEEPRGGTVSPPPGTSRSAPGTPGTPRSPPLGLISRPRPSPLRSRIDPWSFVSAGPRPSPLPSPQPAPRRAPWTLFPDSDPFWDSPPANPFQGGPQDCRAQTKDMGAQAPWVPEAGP
# T14 sequence (P36896 24-505): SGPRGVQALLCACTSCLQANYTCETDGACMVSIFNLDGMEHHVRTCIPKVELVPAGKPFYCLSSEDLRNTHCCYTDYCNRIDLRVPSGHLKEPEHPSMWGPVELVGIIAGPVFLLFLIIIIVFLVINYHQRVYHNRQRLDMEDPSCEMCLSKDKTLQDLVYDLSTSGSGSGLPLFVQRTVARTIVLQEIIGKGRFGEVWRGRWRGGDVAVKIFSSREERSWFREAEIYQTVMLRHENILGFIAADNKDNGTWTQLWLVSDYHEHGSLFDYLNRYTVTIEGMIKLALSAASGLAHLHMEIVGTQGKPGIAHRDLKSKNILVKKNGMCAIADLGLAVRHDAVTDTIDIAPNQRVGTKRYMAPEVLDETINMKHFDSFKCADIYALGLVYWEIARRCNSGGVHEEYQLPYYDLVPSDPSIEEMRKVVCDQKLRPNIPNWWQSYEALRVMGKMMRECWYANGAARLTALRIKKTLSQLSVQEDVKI
# T16 sequence (P37173 23-567): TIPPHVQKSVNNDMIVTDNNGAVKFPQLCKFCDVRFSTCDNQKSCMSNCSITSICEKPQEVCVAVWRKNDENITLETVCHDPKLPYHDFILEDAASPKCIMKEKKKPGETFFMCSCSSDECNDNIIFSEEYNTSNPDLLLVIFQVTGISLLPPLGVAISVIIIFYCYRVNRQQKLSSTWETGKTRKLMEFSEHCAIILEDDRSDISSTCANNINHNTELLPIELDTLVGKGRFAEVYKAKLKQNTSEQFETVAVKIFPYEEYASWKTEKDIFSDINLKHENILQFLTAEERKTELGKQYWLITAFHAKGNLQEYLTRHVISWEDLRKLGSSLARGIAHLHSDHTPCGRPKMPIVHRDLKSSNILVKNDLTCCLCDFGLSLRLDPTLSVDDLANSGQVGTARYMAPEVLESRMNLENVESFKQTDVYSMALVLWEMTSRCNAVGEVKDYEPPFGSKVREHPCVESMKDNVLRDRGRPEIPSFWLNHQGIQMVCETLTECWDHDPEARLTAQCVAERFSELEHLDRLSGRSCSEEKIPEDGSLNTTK
# T24 sequence (Q9NY57 whole entry): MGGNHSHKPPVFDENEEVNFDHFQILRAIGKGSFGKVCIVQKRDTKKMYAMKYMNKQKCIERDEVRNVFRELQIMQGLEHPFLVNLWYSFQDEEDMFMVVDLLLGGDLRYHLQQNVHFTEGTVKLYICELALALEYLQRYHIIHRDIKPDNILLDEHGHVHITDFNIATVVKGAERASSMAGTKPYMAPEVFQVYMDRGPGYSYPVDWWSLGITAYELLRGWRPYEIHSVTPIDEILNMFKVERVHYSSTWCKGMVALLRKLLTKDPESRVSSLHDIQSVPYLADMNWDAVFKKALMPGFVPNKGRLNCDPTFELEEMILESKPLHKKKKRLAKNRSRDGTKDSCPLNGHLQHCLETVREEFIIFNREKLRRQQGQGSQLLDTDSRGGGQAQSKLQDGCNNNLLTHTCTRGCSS
# T26 sequence (Q9Y243 whole entry): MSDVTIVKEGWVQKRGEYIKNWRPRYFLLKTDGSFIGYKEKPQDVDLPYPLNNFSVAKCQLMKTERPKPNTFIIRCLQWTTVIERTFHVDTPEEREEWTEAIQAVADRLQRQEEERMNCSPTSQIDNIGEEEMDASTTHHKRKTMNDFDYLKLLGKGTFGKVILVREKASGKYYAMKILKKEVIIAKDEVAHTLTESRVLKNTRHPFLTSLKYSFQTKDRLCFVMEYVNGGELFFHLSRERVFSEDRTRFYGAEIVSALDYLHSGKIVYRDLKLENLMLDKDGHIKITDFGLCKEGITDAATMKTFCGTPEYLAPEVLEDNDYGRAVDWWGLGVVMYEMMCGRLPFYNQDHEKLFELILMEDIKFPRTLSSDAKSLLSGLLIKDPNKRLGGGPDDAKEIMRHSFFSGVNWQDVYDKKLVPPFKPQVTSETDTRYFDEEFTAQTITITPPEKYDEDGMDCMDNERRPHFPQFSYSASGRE
# T28 sequence (Q9NRM7 whole entry): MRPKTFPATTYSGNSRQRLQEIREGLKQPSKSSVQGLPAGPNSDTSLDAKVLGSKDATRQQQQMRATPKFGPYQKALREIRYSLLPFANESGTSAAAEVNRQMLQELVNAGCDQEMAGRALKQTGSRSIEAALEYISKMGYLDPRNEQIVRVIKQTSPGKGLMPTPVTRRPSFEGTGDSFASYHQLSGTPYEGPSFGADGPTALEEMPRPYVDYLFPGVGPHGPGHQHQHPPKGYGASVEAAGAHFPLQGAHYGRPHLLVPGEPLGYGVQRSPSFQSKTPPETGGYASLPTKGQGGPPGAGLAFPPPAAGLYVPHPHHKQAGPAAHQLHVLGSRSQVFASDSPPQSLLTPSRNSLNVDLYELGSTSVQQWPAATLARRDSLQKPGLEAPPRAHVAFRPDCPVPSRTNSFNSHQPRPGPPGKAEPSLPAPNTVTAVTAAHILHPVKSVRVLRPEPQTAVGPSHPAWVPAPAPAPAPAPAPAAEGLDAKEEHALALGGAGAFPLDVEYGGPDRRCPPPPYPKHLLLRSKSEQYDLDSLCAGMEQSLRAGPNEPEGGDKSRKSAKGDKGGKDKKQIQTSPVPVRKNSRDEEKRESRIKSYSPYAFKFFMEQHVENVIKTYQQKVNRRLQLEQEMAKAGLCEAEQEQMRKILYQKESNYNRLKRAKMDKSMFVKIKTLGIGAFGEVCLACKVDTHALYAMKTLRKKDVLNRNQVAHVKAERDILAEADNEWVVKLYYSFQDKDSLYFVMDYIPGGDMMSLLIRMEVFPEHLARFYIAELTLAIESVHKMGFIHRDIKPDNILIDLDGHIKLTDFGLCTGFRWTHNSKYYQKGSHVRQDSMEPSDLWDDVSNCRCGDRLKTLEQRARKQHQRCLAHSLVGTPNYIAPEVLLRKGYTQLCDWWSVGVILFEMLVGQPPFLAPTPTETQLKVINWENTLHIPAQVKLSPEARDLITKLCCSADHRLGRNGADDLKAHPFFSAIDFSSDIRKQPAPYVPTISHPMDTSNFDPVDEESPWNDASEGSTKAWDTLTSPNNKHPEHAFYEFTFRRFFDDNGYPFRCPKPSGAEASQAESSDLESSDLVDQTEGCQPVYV
# T18 sequence (Q07002 whole entry): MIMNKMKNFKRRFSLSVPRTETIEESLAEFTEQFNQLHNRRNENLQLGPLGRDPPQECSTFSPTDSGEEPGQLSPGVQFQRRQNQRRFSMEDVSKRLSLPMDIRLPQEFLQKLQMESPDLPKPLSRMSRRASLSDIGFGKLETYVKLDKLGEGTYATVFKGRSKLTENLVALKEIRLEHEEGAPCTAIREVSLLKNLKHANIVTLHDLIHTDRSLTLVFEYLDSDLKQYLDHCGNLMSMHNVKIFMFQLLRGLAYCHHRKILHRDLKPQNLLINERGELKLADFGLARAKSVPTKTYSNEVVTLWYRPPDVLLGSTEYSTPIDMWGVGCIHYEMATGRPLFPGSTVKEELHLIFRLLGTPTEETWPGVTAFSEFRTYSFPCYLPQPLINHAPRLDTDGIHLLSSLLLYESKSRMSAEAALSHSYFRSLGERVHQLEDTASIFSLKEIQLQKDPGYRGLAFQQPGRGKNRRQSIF
compound,measurement,setting,value
"C#Cc1cccc(Nc2ncnc3cc(OC)c(OCCCN4CCOCC4)cc23)c1 [NRC-2694, N-(3-ethynylphenyl)-7-methoxy-6-[3-(4-morpholinyl)propoxy]-4-quinazolinamine]",remaining binding at 10 µM,MLK3,72%
same,remaining binding at 10 µM,MAPKAPK2,90%
same,remaining binding at 10 µM,EPHA6,25%
same,remaining binding at 10 µM,PIK3CB,100%
same,remaining binding at 10 µM,HCK,17%
same,remaining binding at 10 µM,CSNK2A2,52%
same,remaining binding at 10 µM,MST1R,94%
same,remaining binding at 10 µM,AURKC,47%
same,remaining binding at 10 µM,[1],84%
same,remaining binding at 10 µM,CSNK1A1L,44%
same,remaining binding at 10 µM,TNNI3K,7.6%
same,remaining binding at 10 µM,ERK3,10%
same,remaining binding at 10 µM,CDK5,100%
same,remaining binding at 10 µM,ACVR1B,63%
same,remaining binding at 10 µM,CLK1,31%
same,remaining binding at 10 µM,TGFBR2,86%
same,remaining binding at 10 µM,EGFR(L861Q),0%
same,remaining binding at 10 µM,PCTK3,82%
same,remaining binding at 10 µM,HPK1,47%
same,remaining binding at 10 µM,MARK1,56%
same,remaining binding at 10 µM,ABL1(M351T),37%
same,remaining binding at 10 µM,WEE1,74%
same,remaining binding at 10 µM,MAP3K3,5.9%
same,remaining binding at 10 µM,YANK2,68%
same,remaining binding at 10 µM,GAK,0.95%
same,remaining binding at 10 µM,AKT3,66%
same,remaining binding at 10 µM,p38-delta,100%
same,remaining binding at 10 µM,LATS2,93%
same,remaining binding at 10 µM,MAP4K5,23%
same,remaining binding at 10 µM,ACVR2B,63%
same,remaining binding at 10 µM,[2],70%
same,remaining binding at 10 µM,DDR2,76%
same,remaining binding at 10 µM,EPHA4,64%
